Data published in ChEMBL document CHEMBL3797153, “Discovery of acyl guanidine tryptophan hydroxylase-1 inhibitors” (Bioorg Med Chem Lett, 2016).
Values after ≈ are worked out from the molar mass of the structure shown.

Key:
[1] = Protein binding in rat plasma by equilibrium dialysis; format: ADME, cell-free; conditions: read-out: PPB (converted)
[2] = Kinetic aqueous solubility in pH 7.4 50 mM phosphate buffer; format: physicochemical; conditions: read-out: Kinetic_solubility
Mus musculus = assay: In-vivo inhibition of TPH1 in mouse assessed as 5-HT level in intestinal mucosa at 150 mg/kg, po administered as single dose relative to control; format: functional; parameters: scale not given: the % may be the effect or the level left

SMILES	fraction unbound [1]	solubility kinetic [2]	Activity (Mus musculus)
COc1cccc(Oc2cccc(N3CCCCC3)c2CN/C(N)=N/C(=O)c2ccc(C[C@H](N)C(=O)O)cc2)c1	0.12	> 40 µM	
CCOC(=O)[C@@H](N)Cc1ccc(C(=O)/N=C(\N)NCc2c(Oc3ccccc3)cccc2N2CCCCC2)cc1			62%
N/C(=N\C(=O)c1ccc(C[C@H](N)C(=O)O)cc1)NCc1cc(-c2ccccc2)ccc1N1CCCCC1		16 µM (≈ 7.99 µg/mL)	
Cc1cccc(N2CCCCCC2)c1CN/C(N)=N/C(=O)c1ccc(C[C@H](N)C(=O)O)cc1		40 µM (≈ 18.1 µg/mL)	72%
N/C(=N\C(=O)c1ccc(C[C@H](N)C(=O)O)cc1)NCc1c(Oc2ccccc2)cccc1N1CCCCC1			80%
CCOC(=O)[C@@H](N)Cc1ccc(C(=O)/N=C(\N)NCc2c(C)cccc2N2CCCCCC2)cc1			62%
Nc1nc(OC(c2ccc(-c3cccc(F)c3)cc2)C(F)(F)F)cc(-c2ccc(C[C@H](N)C(=O)O)cc2)n1 (stereo not given in full)	< 0.001	2.1 µM (≈ 1.11 µg/mL)	
